The results in this text go back to patent publication US9248202B2, “Two-photon probe for detecting copper(II) ion and quantitative estimation of copper(II) ion in human tissue using the same” (Korea University Research and Business Foundation, priority 2014, dated 2016).

A short description of data set [1]: Absorption and fluorescence spectra, quantum yield, energy transfer. Type of data set: physicochemical. To be noted: for φ (fluorescence quantum yield): uncertainty ± 15%; for λmax^abs: one-photon absorption; for λmax^t1: one-photon emission. As for the experimental part: Absorption spectra were recorded using the Hewlett-Packard 8453 diode array spectrophotometer and fluorescence spectra were measured using the Amico-Bowman series 2 luminescence spectrometer a 1 cm standard quartz cell. The fluorescence quantum yield was determined using coumarin 307 and rhodamine B as references according to the literature method (J. N. Demas, G. A. Crosby, J. Phys. Chem. 1971, 75, 991).
(hereinafter, ‘ACCu2’), a compound of [Chemical Formula 12] (hereinafter, ‘FL’) and a compound of [Chemical Formula 13] (hereinafter, ‘IR’) in 1,4-dioxane, DMF, ethanol, EtOH/HEPES (9:1) and HEPES buffer ([HEPES]=20 mM, pH 7.0). Excitation wavelength was 420 nm. The solubility of ACCu2 in HEPES buffer ([HEPES]=20 mM, pH 7.0) as determined by the fluorescence method described in the literature (Kim, H. M.; Choo, H. J.; Jung, S. Y.; Ko, Y. G.; Park, W. H.; Jeon, S. J.; Kim, C. H.; Joo, T. H.; Cho, B. R. Chem Bio Chem 2007, 8, 553) was 8.0 μM, which was sufficient to stain cells.
To assess the origin of the spectral changes, the energy transfer efficiency (ETE) was calculated using Equation (1). The ETE was 93.4%.
In Equation (1), AIR and AIR′ are the absorbances of the IR moiety and IR, respectively, and FIR and FIR′ are the emission intensities of the IR moiety and IR, respectively, upon excitation at 373 nm.
The antenna effect in the one-photon (OP) (or TP) mode was 3.0 (or 3.1). The antenna effect was calculated by dividing the area of emission from the FL moiety upon excitation of the IR moiety at 373 nm (or 750 nm in the TP mode) by that collected from the direct excitation of FL at 461 nm (or 880 nm in the […]).

A short description of data set [2]: Two-photon action cross section. Type of data set: physicochemical. To be noted: EtOH/HEPES (9/1 v/v, pH 7.0). As for the experimental part: Referring to FIG. 4(a), the Φδmax value of ACCu2 in EtOH/HEPES (9/1 v/v, pH 7.0) buffer was 32 GM at 880 nm, while those for FL and IR were 32 GM at 880 nm and 46 GM at 750 nm. The lower Φδmax value of ACCu2 at 750 nm than that of IR is because of decreased fluorescence resonance energy transfer (FRET) from IR to FL and it allows to obtain bright TPM images of cells and ^.tissues labeled with ACCu2.
The two-photon cross section (δ) was determined by the fe tosecond (fs) fluorescence measurement technique described in the literature (S. K. Lee, W. J. Yang, J. J. Choi, C. H. Kim, S.-J. Jeon, B. R. Cho, Org. Lett 2005, 7, 323-326.), ACCu2 was dissolved in 20 mM HEPES buffer (pH 7.0) to a concentration of 3.0×10^−6 M and then two-photon induced fluorescence intensity was measured at 740-940 nm using rhodamine 6G as a reference, whose two-photon property has been well characterized. The intensities of two-photon induced fluorescence of the reference and the sample were determined at the same excitation wavelength.
The two-photon cross section can be calculated from equation (3). δ=δr(SsΦrΦrcr)/(SrΦsΦscs) Equation (3)
wherein s and r stand for the sample, i.e., ACCu2, and the reference, respectively. S denotes the intensity of the signal collected using a CCD detector, Φ is the fluorescence quantum yield, Φ is the overall fluorescence collection efficiency of the experimental apparatus, c is the number density of molecules in solution, and δr is the two-photon cross section of the reference molecule.

`CN(C)c1ccc2cc3cc(C(=O)NCc4ccc(C(=O)O)cn4)c(=O)oc3cc2c1` [FL]: the “φ (fluorescence quantum yield)” value in data set [1] (1,4-Dioxane (0.164)) was found to be 0.77; in data set [1] (DMF (0.386)) it was 0.29; in data set [1] (EtOH (0.654)) it was 0.25; in data set [1] (EtOH/HEPES (9:1)) it was 0.15; in data set [1] (HEPES buffer 20 mM, pH 7.0), 0.0045. In addition, the “λmax^abs” value in data set [1] (1,4-Dioxane (0.164)) turned out to be 438 nm; in data set [1] (DMF (0.386)) it was 454 nm; in data set [1] (EtOH (0.654)), 457 nm; in data set [1] (EtOH/HEPES (9:1)), 461 nm; in data set [1] (HEPES buffer 20 mM, pH 7.0) it was 452 nm. For the same compound, the “λmax^t1” value in data set [1] (1,4-Dioxane (0.164)) is 536 nm; in data set [1] (DMF (0.386)), 576 nm; in data set [1] (EtOH (0.654)), 582 nm; in data set [1] (EtOH/HEPES (9:1)) it was 587 nm; in data set [1] (HEPES buffer 20 mM, pH 7.0), 590 nm. In addition, the “Φδmax (two-photon action cross section)” value in data set [2] (at 880 nm) turned out to be 32 GM.
Turning to `COCCOCCOCCOc1ccc2c(ccc3cc(C(=O)N4CCNCC4)c(=O)oc32)c1` [IR], the “φ (fluorescence quantum yield)” value in data set [1] (1,4-Dioxane (0.164)) came to 0.080; in data set [1] (DMF (0.386)) it was 0.070; in data set [1] (EtOH (0.654)), 0.18; in data set [1] (EtOH/HEPES (9:1)) it was 0.62; in data set [1] (HEPES buffer 20 mM, pH 7.0), 1.00. For the same compound, the “λmax^abs” value in data set [1] (1,4-Dioxane (0.164)) turned out to be 367 nm; in data set [1] (DMF (0.386)) it was 366 nm; in data set [1] (EtOH (0.654)), 372 nm; in data set [1] (EtOH/HEPES (9:1)) it was 373 nm; in data set [1] (HEPES buffer 20 mM, pH 7.0), 375 nm. Also, the “λmax^t1” value in data set [1] (1,4-Dioxane (0.164)) worked out at 445 nm; in data set [1] (DMF (0.386)) it was 448 nm; in data set [1] (EtOH (0.654)), 451 nm; in data set [1] (EtOH/HEPES (9:1)), 460 nm; in data set [1] (HEPES buffer 20 mM, pH 7.0) it was 468 nm. Besides, the “Φδmax (two-photon action cross section)” value in data set [2] (at 750 nm) was 46 GM.
